Measured values from patent publication US11213509B2, “Compositions and methods for treating traumatic brain injury” (Ischemix, LLC, priority 2017, dated 2022).

What was measured:
[1] = system: fluid percussion model of diffused traumatic brain injury (TBI) in rats; experiment: Body swing test, fluid percussion model of diffused TBI; format: in vivo, rat; details: 45 mg/kg i.v. at 30 minutes and 24 hours after TBI; Day 28; vs vehicle, p<0.05
Description: On the day before TBI surgery (Day −1), rats were anesthetized with 3% isoflurane in a mixture of nitrous oxide and oxygen (2:1) for induction of anesthesia and then maintained at 1-3% isoflurane in a mixture of nitrous oxide and oxygen (2:1). The surgical site skin was shaved, and the rat was then placed in a stereotaxic frame. Buprenorphine SR, s.c, (0.9-1.2 mg/kg Zoopharm: Lot: BSR1-142111) and Cefazolin, i.p., (40-50 mg/kg; Hospira: Lot: 101D032) was given at this time. The skull was exposed through a midline incision. A parasagittal craniotomy (5 mm) using a trephine drill was performed at 1 mm posterior to bregma and 1 mm lateral to the midline (outer circumference). […]
On the day of TBI surgery (Day 0), rats were re-anesthetized with 3% isoflurane in a mixture of nitrous oxide and oxygen (2:1), intubated, connected to a respirator and ventilated with 1-2% isoflurane in a mixture of nitrous oxide and oxygen (2:1). […] The amplitude of the resulting pressure pulse was measured in atmospheres by a pressure transducer. […]
Dosing solutions were prepared in a blinded fashion with H, I, M, O and Z labels ready to use. […]
The rat was held approximately one inch from the base of its tail. […] A swing was recorded whenever the rat moved its head out of the vertical axis to either side. The rat must have returned to the vertical position for the next swing to be counted. Thirty (30) total swings were counted. […]

[2] = system: mitochondrial bioenergetics; experiment: Mitochondrial respiration (respiratory control ratio) 24 hours post-CCI, focal TBI model in piglets; format: in vivo
Description: (§1) Study Design: A blinded, placebo controlled proof of concept trial of CMX-2043 was conducted in four-week-old piglets (8-10 kg). […] Sixteen piglets (n=16) were designated into three cohorts: 1) Controlled cortical impact (CCI) at the rostral gyrus treated with a bolus of CMX-2043 (n=5), 2) CCI injured animals treated with placebo (n=5) and 3) sham animals (n=6). CMX-2043 treated animals received an intravenous loading bolus of CMX-2043 (13.4 mg/kg) 1 hour post-TBI and a 4.5 mg/kg bolus at 13 hours post-TBI. Subjects were intubated, ventilated and anesthesia maintained on isoflurane (1.0%). Buprenorphine (0.02 mg/kg IM) was administered for analgesia immediately following intubation. Monitors recorded oxygen saturation, heart rate, respiration rate, rectal temperature, and end tidal CO2. […] All piglets were sacrificed between 24-25 hours post-TBI.
(§2) Mitochondrial Respiration and ROS Production: Twenty four hours post-CCI the ipsilateral penumbra and mirrored contralateral cortex were harvested. The rate of oxygen consumption was recorded via high-resolution Oroboros Oxygraph-2k™ with a specific Substrate-Uncouple-Inhibitor-Titration Protocol (SUIT). […] Maximal reserve capacity of the electron transfer system (ETSCI+CII) was measured by titrating the protonophore carbonyl cyanide p-(trifluoro-methoxy) phenylhydrazone (FCCP). […]

[3] = system: lipid peroxidation (4-HNE); experiment: Lipid peroxidation by 4-hydroxynonenal (4-HNE) Western blot, focal TBI model in piglets; format: in vivo; details: cortical penumbra, ipsilateral; vs placebo, p<0.001
Description: as §1
Samples from the same ipsilateral injured region analyzed for mtROS were analyzed for oxidative damage by measuring 4-HNE as an assessment of lipid peroxidation by Western Blot analysis (EMD Millipore), normalized by GAPDH (EMD Millipore), and compared to placebo and shams.

[4] = system: mitochondrial reactive oxygen species generation (mtROS); experiment: Mitochondrial reactive oxygen species generation 24 hours post-CCI, focal TBI model in piglets; format: in vivo; details: p<0.0001 vs placebo
Description: as §1, §2

## CC(NC(=O)C(CCC(=O)O)NC(=O)CCCCC1CCSS1)C(=O)O [CMX-2043, N—(R)-lipoyl-glutamylalanine]
[1]
  Body swing test recovery: superior recovery compared to vehicle-treated animals
[2]; contralateral cortex, P=0.09 vs placebo
  Respiratory control ratio (RCR; OXPHOS CI+CII/LEAK CI+CII): 11.05±1.71
[2]; ipsilateral cortex, i.v. 13.4 mg/kg at 1 hour and 4.5 mg/kg at 13 hours post-TBI, p<0.05 vs placebo
  Respiratory control ratio (RCR; OXPHOS CI+CII/LEAK CI+CII): 11.61±2.28
[3]
  Lipid peroxidation (4-HNE): significant reduction in lipid peroxidation
[4]; contralateral
  Mitochondrial ROS (mtROS) generation: 5.13±1.67 H2O2/(μmol O2/s*mg)
[4]; ipsilateral
  Mitochondrial ROS (mtROS) generation: 8.28±1.47 H2O2/(μmol O2/s*mg)
